Legend:
[1] = test system: ABUTH; test: Pre-emergence herbicidal action against ABUTH; assay type: in vivo, Abutilon theophrasti; conditions: for Pre-emergence action against ABUTH (herbicidal activity in percent): dosage 20 g/ha, scored visually after 3 weeks vs untreated controls, 100% = plants have died, 0% = like control plants
Procedure, shortened: (§1)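 Pre-emergence soil-surface spray of formulated compound (WP or EC; 600 to 800 l/ha; 0.2% wetting agent) over seeds sown in sandy loam. After 3 weeks under greenhouse conditions, damage is estimated visually in percent against untreated plants.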

[2] = test system: ALOMY; test: Pre-emergence herbicidal action against ALOMY; assay type: in vivo, Alopecurus myosuroides; conditions: 80 g/ha, pre-emergence, scored visually after 3 weeks vs untreated controls (100% = plants have died, 0% = like control plants)
Procedure, shortened: as §1

[3] = test system: AMARE; test: Pre-emergence herbicidal action against AMARE; assay type: in vivo, Amaranthus retroflexus
Procedure, shortened: as §1

[4] = test system: AVEFA; test: Pre-emergence herbicidal action against AVEFA; assay type: in vivo, Avena fatua
Procedure, shortened: as §1

[5] = test system: ECHCG; test: Pre-emergence herbicidal action against ECHCG; assay type: in vivo, Echinochloa crus-galli
Procedure, shortened: as §1

[6] = test system: MATIN; test: Pre-emergence herbicidal action against MATIN; assay type: in vivo, Matricaria inodora
Procedure, shortened: as §1

[7] = test system: SETVI; test: Pre-emergence herbicidal action against SETVI; assay type: in vivo, Setaria viridis; conditions: dosage 80 g/ha
Procedure, shortened: as §1

[8] = test system: VERPE; test: Pre-emergence herbicidal action against VERPE; assay type: in vivo, Veronica persica
Procedure, shortened: as §1

[9] = test system: VIOTR; test: Pre-emergence herbicidal action against VIOTR; assay type: in vivo, Viola tricolor
Procedure, shortened: as §1

[10] = test system: ABUTH; test: Post-emergence herbicidal action against ABUTH; assay type: in vivo, Abutilon theophrasti; conditions: dosage 20 g/ha, visual assessment about 3 weeks after treatment vs untreated controls
Procedure, shortened: (§2)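 Spray, one-leaf stage: WP or EC compound in water, 600–800 l/ha, 0.2% wetting agent. Plants held about 3 weeks in the greenhouse, then visually rated in percent of kill compared with untreated controls.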

[11] = test system: ALOMY; test: Post-emergence herbicidal action against ALOMY; assay type: in vivo, Alopecurus myosuroides; conditions: dosage 20 g/ha, visual assessment about 3 weeks after treatment vs untreated controls
Procedure, shortened: as §2

[12] = test system: AMARE; test: Post-emergence herbicidal action against AMARE; assay type: in vivo, Amaranthus retroflexus; conditions: 20 g/ha, visual assessment about 3 weeks after treatment, 100% = plants have died, 0% = like control plants
Procedure, shortened: as §2

[13] = test system: AVEFA; test: Post-emergence herbicidal action against AVEFA; assay type: in vivo, Avena fatua; conditions: 20 g/ha, visual assessment about 3 weeks after treatment, 100% = plants have died, 0% = like control plants
Protocol: Seeds of monocotyledonous and dicotyledonous weed and crop plants are laid out in sandy loam soil in wood-fiber pots, covered with soil and cultivated in a greenhouse under good growth conditions. 2 to 3 weeks after sowing, the test plants are treated at the one-leaf stage. The compounds of the invention, formulated in the form of wettable powders (WP) or as emulsion concentrates (EC), are then sprayed onto the green parts of the plants in the form of an aqueous suspension or emulsion at a water application rate equivalent to 600 to 800 l/ha, with addition of 0.2% wetting agent. After the test plants have been left to stand in the greenhouse under optimal growth conditions for about 3 weeks, the action of the preparations is assessed visually in comparison to untreated controls (herbicidal action in percent (%): 100% activity=the plants have died, 0% activity=like control plants). […] The tables below illustrate, in an illustrative manner, the post-emergence herbicidal action of the compounds of the invention, the herbicidal activity being stated in percent.

[14] = test system: SETVI; test: Post-emergence herbicidal action against SETVI; assay type: in vivo, Setaria viridis
Procedure, shortened: as §2

[15] = test system: VIOTR; test: Post-emergence herbicidal action against VIOTR; assay type: in vivo, Viola tricolor
Procedure, shortened: as §2

[16] = test system: ECHCG; test: Post-emergence herbicidal action against ECHCG; assay type: in vivo, Echinochloa crus-galli
Procedure, shortened: as §2

[17] = test system: MATIN; test: Post-emergence herbicidal action against MATIN; assay type: in vivo, Matricaria inodora
Procedure, shortened: as §2

[18] = test system: PHBPU; test: Post-emergence herbicidal action against PHBPU; assay type: in vivo, Pharbitis purpurea
Procedure, shortened: as §2

[19] = test system: VERPE; test: Post-emergence herbicidal action against VERPE; assay type: in vivo, Veronica persica
Procedure, shortened: as §2

[20] = 80 g/ha, scored visually after 3 weeks vs untreated controls (100% = plants have died, 0% = like control plants)
[21] = 20 g/ha, scored visually after 3 weeks vs untreated controls, 100% = plants have died, 0% = like control plants

Structure (SMILES)	Pre-emergence action against ABUTH (herbicidal activity) [1, 20] [%]	Pre-emergence action against ABUTH (herbicidal activity in percent) [1] [%]	Pre-emergence action against ALOMY (herbicidal activity) [2] [%]	Pre-emergence action against AMARE in % [3, 21] [%]	Pre-emergence action against AMARE in % [3, 20] [%]	Pre-emergence action against ECHCG in % ([5]; 20 g/ha) [%]	Pre-emergence action against ECHCG in % ([5]; 80 g/ha) [%]	Pre-emergence action against MATIN in % ([6]; dosage 20 g/ha) [%]	Pre-emergence action against MATIN in % ([6]; dosage 80 g/ha) [%]	Pre-emergence action against SETVI in % [7] [%]	Pre-emergence action against VERPE in % ([8]; dosage 80 g/ha) [%]	Pre-emergence action against VIOTR in % ([9]; dosage 20 g/ha) [%]	Pre-emergence action against VIOTR in % ([9]; dosage 80 g/ha) [%]	Post-emergence action against ABUTH in % [10] [%]	Post-emergence action at 20 g/ha against AMARE in % [12] [%]	Post-emergence action at 20 g/ha against AVEFA in % [13] [%]	Post-emergence action against ECHCG in % ([16]; dosage 20 g/ha) [%]	Post-emergence action against MATIN in % ([17]; dosage 20 g/ha) [%]	Post-emergence action against VIOTR in % ([15]; 5 g/ha) [%]	Post-emergence action against VIOTR in % ([15]; 20 g/ha) [%]	also measured
CCn1nnnc1NC(=O)c1ccc(Cl)c(C(=O)NC2CC2)c1Br [Example 2-349]																					pest or weed control at 80 g/ha ([1]; Abutilon theophrasti, 504 h, 80 g/ha, scored visually after 3 weeks vs untreated controls (100% = plants have died, 0% = like control plants)): 100%; pest or weed control at 80 g/ha ([2]; Alopecurus myosuroides, 504 h): 100%; pest or weed control at 20 g/ha ([3]; Amaranthus retroflexus, 504 h, 20 g/ha, scored visually after 3 weeks vs untreated controls, 100% = plants have died, 0% = like control plants): 100%; pest or weed control at 80 g/ha ([3]; Amaranthus retroflexus, 504 h, 80 g/ha, scored visually after 3 weeks vs untreated controls, 100% = plants have died, 0% = like control plants): 100%; pest or weed control at 80 g/ha ([4]; Avena fatua, 504 h, 80 g/ha, pre-emergence): 100%; pest or weed control at 20 g/ha ([4]; Avena fatua, pre-emergence, 504 h, 20 g/ha, scored visually after 3 weeks, 100% = plants have died, 0% = like control plants): 90%; pest or weed control at 80 g/ha ([5]; Echinochloa crus-galli, 504 h, 80 g/ha): 90%; pest or weed control at 20 g/ha ([6]; Tripleurospermum inodorum, 504 h, dosage 20 g/ha): 90%; pest or weed control at 80 g/ha ([6]; Tripleurospermum inodorum, 504 h, dosage 80 g/ha): 100%; pest or weed control at 80 g/ha ([7]; Setaria viridis, 504 h): 100%; pest or weed control at 80 g/ha ([8]; Veronica persica, 504 h, dosage 80 g/ha): 80%; pest or weed control at 20 g/ha ([9]; Viola tricolor, 504 h, dosage 20 g/ha): 90%; pest or weed control at 80 g/ha ([9]; Viola tricolor, 504 h, dosage 80 g/ha): 100%; pest or weed control at 20 g/ha ([10]; Abutilon theophrasti, 504 h): 80%; pest or weed control at 20 g/ha ([11]; Alopecurus myosuroides, 504 h): 80%; pest or weed control at 20 g/ha ([12]; Amaranthus retroflexus, 504 h): 100%; pest or weed control at 20 g/ha ([13]; Avena fatua, 504 h): 90%; pest or weed control at 5 g/ha ([14]; Setaria viridis, 504 h, dosage 5 g/ha): 90%; pest or weed control at 20 g/ha ([14]; Setaria viridis, 504 h, dosage 20 g/ha): 100%; pest or weed control at 20 g/ha ([15]; Viola tricolor, 504 h, 20 g/ha): 80%
CSc1c(C(=O)Nc2nnnn2C)ccc(C(F)F)c1C(=O)NC(C)C1CC1 (stereo not drawn) [Example 1-353]	100	100	90	100	100	90	100	100	100	100	100	100	100	80	100	80	100	90	100	100	Post-emergence action against ALOMY in % [11]: 80%; Post-emergence action against ECHCG in % ([16]; dosage 5 g/ha): 100%; Post-emergence action against MATIN in % ([17]; dosage 5 g/ha): 80%; Post-emergence action against PHBPU in % ([18]; dosage 20 g/ha): 90%; Post-emergence action against SETVI in % ([14]; dosage 20 g/ha): 100%; Post-emergence action against VERPE in % ([19]; 5 g/ha): 80%; Post-emergence action against VERPE in % ([19]; 20 g/ha): 90%
CCn1nnnc1NC(=O)c1ccc(C(F)F)c(C(=O)NCC2CC2)c1SC [Example 2-90]	100	100		100	100	90	100	100	100	100	90	80	100	90	100	80	100	90	100	100	Pre-emergence action against AVEFA ([4]; 20 g/ha, scored visually after 3 weeks, 100% = plants have died, 0% = like control plants): 80%; Pre-emergence action against AVEFA in % ([4]; 80 g/ha, pre-emergence): 90%
CSc1c(C(=O)Nc2nnnn2C)ccc(C(F)(F)F)c1C(=O)NCC1CC1 [Example 1-84]	100	100	100	100	100		100	100	100	100	100		100		100	80	100	90	100	100	Pre-emergence action against AVEFA in % ([4]; 80 g/ha, pre-emergence): 100%; Pre-emergence action against VERPE in % ([8]; dosage 20 g/ha): 80%; Post-emergence action against ALOMY in % [11]: 100%; Post-emergence action against PHBPU in % ([18]; dosage 5 g/ha): 90%; Post-emergence action against PHBPU in % ([18]; dosage 20 g/ha): 90%; Post-emergence action against SETVI in % ([14]; dosage 5 g/ha): 100%; Post-emergence action against SETVI in % ([14]; dosage 20 g/ha): 100%; Post-emergence action against VERPE in % ([19]; 20 g/ha): 90%

Reference: US12655116B2, “Substituted isophthalic acid diamides” (Bayer Aktiengesellschaft, priority 2020, dated 2026)
